Experimental data from patent publication US11446287B2, “Compounds and methods for EP300 or CBP modulation and indications therefor” (Opna Immuno-Oncology SA, priority 2019, dated 2022).

Biological target: T1, Recombinant human EP300 containing the bromodomain (EP300-BD (1040-1161)) (Homo sapiens, UniProt Q09472)
T1 construct: Recombinant human EP300 bromodomain (EP300-BD (1040-1161)); made in house; host or cells: E. coli BL21-CodonPlus (DE3), modified pET vector
T1 sequence (Q09472 1040-1161): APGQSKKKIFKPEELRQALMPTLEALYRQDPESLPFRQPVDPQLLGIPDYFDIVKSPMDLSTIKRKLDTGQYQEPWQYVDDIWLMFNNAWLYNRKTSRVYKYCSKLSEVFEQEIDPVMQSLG
Experiment: EP300 Alphascreen binding assay
Procedure: EP300 Alphascreen Binding Assay
Binding of compounds of Formula (I) with EP300 was assessed using Alphascreen™ binding assay. The inhibition of the interaction between the EP300 bromodomain and its acetylated target protein was measured quantitatively using recombinant EP300 protein, an acetylated Histone 3 peptide and AlphaScreen™ technology. In absence of inhibition of the EP300 protein bound to AlphaScreen™ nickel chelate acceptor beads can interact with the acetylated Histone 3 peptide which is immobilized by the AlphaScreen™ Streptavidin coated beads. This interaction brings donor and acceptor beads in proximity. The close proximity allows the singlet oxygen produced by laser excitation of the donor beads to reach the acceptor beads and generate a luminescence signal. EP300 inhibitors result in a decrease in the proximity signal through an inhibition of the EP300—acetylated peptide interaction.
Recombinant human EP300 containing the bromodomain (EP300-BD (1040-1161)) was prepared and purified as described in protein expression and purification session. The peptide is human Histone H345-64K56Ac-Biotin (Anaspec CA, USA).
Protocol for EP300 assay: All components were prepared in buffer composed of 50 mM HEPES pH 7.5, 50 mM NaCl, 0.01% BSA, 0.01% Triton X-100, 2 mM DTT. Test compounds and DMSO vehicle were diluted 1:50 in buffer and a 4 μL volume is transferred to an Alphaplate. 5.5 μL of EP300 protein and 5.5 μL of peptide were added to wells containing 4 μL of various concentrations of test compounds of Formula (I) or DMSO vehicle in an Alphaplate (PerkinElmer GA, USA) and incubated for 1 hour at room temperature. 5 μL donor and acceptor bead mixture was then added with final concentrations of 7.5 μg/ml. 60 minutes after bead addition, Alpha signal is read on the Envision spectrometer (λEx 680 nm, λEm 520-620 nm). Final concentrations of bromodomain proteins and peptide are as shown below.
All data were normalized to the mean of 16 high and 16 low control wells on each plate. A four parameter curve fit of the following formula was then applied: Y=A+((B−A)/(1+((C/x)^D))) Where ‘A’ is the minimum, ‘B’ is the maximum, ‘C’ is the IC50 and ‘D’ is the Hill slope. Protein Expression and Purification
Recombinant human EP300 bromodomain (EP300-BD (1040-1161)) was expressed in E. coli cells (in a modified pET vector) with an N-terminal six-His tag and purified using a combination of both IMAC (Ni-affinity) and size exclusion chromatography steps.
Recombinant EP300 protein was expressed using the E. coli strain BL21-CodonPlus (DE3) (Agilent Technologies CA, USA). Cells were grown in Terrific Broth (TB) media to an OD600 of 0.7 at 37° C. at which temperature was reduced to 18° C., protein was induced with 1.0 mM isopropyl-β-D-thiogalactopyranoside (“IPTG”) for 20 hours and harvested by centrifugation at 8500×g for 20 minutes. Cells were re-suspended in 0.1M K2PO4 pH 8.0, 250 mM NaCl, 10% Glycerol, 0.75% NP-40, 25 mM Imidazole, with 0.2 mg/ml Lysozyme, 0.2 mM phenylmethanesulfonyl fluoride (“PMSF”), 25 μg/ml DNase I, incubated on ice for 30 minutes and lysed with a cell disruptor (MicroFluidics MA, USA). The lysate was clarified by centrifugation at 20,000×g for 1 hour. The protein was captured with Ni-NTA resin (Life Technologies, USA). Contaminating proteins were washed off with 50 mM HEPES pH 7.5, 500 mM NaCl, and 5% Glycerol. Following 3× wash steps, protein was eluted step wise using 10, 25, 50, 100, 150, and 250 mM Imidazole in 50 mM HEPES pH 7.5, 500 mM NaCl, and 5% glycerol. The protein was further purified using a size exclusion column (26/600 Superdex 200, GE Biosciences NJ, USA) in 10 mM HEPES pH 7.5, […].

Structure (SMILES)	IC50
CCOc1cc(C(=O)O)ccc1-c1cn([C@@H](C)c2ccccn2)c2ncc(-c3c(C)noc3C)cc12 [P-0114, (S)-4-(5-(3,5-dimethylisoxazol-4-yl)-1-(1-(pyridin-2-yl)ethyl)-1H-pyrrolo[2,3-b]pyridin-3-yl)-3-ethoxybenzoic acid]	0.0001 to 1 µM
Cc1noc(C)c1-c1cnc2c(c1)c(-c1ccc(C(=O)O)cc1OCC(F)(F)F)cn2[C@@H](C)c1ccccn1 [P-0115, (S)-4-(5-(3,5-dimethylisoxazol-4-yl)-1-(1-(pyridin-2-yl)ethyl)-1H-pyrrolo[2,3-b]pyridin-3-yl)-3-(2,2,2-trifluoroethoxy)benzoic acid]	0.0001 to 1 µM
Cc1noc(C)c1-c1cnc2c(c1)c(-c1ccc(C(=O)O)cc1C(F)(F)F)cn2[C@@H](C)c1ccccn1 [P-0116, (S)-4-(5-(3,5-dimethylisoxazol-4-yl)-1-(1-(pyridin-2-yl)ethyl)-1H-pyrrolo[2,3-b]pyridin-3-yl)-3-(trifluoromethyl)benzoic acid]	0.0001 to 1 µM
CCCOc1cc(C(=O)O)cc(OCCC)c1-c1cn([C@@H](C)c2ccccn2)c2ncc(-c3c(C)noc3C)cc12 [P-0117, (S)-4-(5-(3,5-dimethylisoxazol-4-yl)-1-(1-(pyridin-2-yl)ethyl)-1H-pyrrolo[2,3-b]pyridin-3-yl)-3,5-dipropoxybenzoic acid]	0.0001 to 1 µM
Cc1noc(C)c1-c1cnc2c(c1)c(-c1c(OC(C)C)cc(C(=O)O)cc1OC(C)C)cn2[C@@H](C)c1ccccn1 [P-0118, (S)-4-(5-(3,5-dimethylisoxazol-4-yl)-1-(1-(pyridin-2-yl)ethyl)-1H-pyrrolo[2,3-b]pyridin-3-yl)-3,5-diisopropoxybenzoic acid]	0.0001 to 1 µM
COc1cc(C(=O)O)cc(OC)c1-c1cn(C(C)c2ccccc2)c2cc(-c3c(C)noc3C)cnc12 (centres unmarked) [P-0119, 4-(6-(3,5-dimethylisoxazol-4-yl)-1-(1-phenylethyl)-1H-pyrrolo[3,2-b]pyridin-3-yl)-3,5-dimethoxybenzoic acid]	0.0001 to 1 µM
Cc1noc(C)c1-c1cnc2c(-c3ccccc3C(=O)O)cn(C(C)c3ccccc3)c2c1 (centres unmarked) [P-0120, 2-(6-(3,5-dimethylisoxazol-4-yl)-1-(1-phenylethyl)-1H-pyrrolo[3,2-b]pyridin-3-yl)benzoic acid]	0.0001 to 1 µM
Cc1noc(C)c1-c1cnc2c(C(=O)C3CCC3)cn(-c3c(Cl)cc(C(=O)O)cc3Cl)c2c1 [P-0121, 3,5-dichloro-4-(3-(cyclobutanecarbonyl)-6-(3,5-dimethylisoxazol-4-yl)-1H-pyrrolo[3,2-b]pyridin-1-yl)benzoic acid]	0.0001 to 1 µM
Cc1noc(C)c1-c1cnc2c(c1)c(-c1cccc(C(=O)O)n1)cn2C(C)c1ccccn1 (centres unmarked) [P-0122, 6-(5-(3,5-dimethylisoxazol-4-yl)-1-(1-(pyridin-2-yl)ethyl)-1H-pyrrolo[2,3-b]pyridin-3-yl)picolinic acid]	1 to 8 µM
Cc1noc(C)c1-c1cnc2c(c1)c(-c1ccc(C(=O)O)cn1)cn2C(C)c1ccccn1 (centres unmarked) [P-0123, 6-(5-(3,5-dimethylisoxazol-4-yl)-1-(1-(pyridin-2-yl)ethyl)-1H-pyrrolo[2,3-b]pyridin-3-yl)nicotinic acid]	0.0001 to 1 µM
Cc1noc(C)c1-c1cnc2c(c1)c(-c1cc(C(=O)O)ccn1)cn2C(C)c1ccccn1 (centres unmarked) [P-0124, 2-(5-(3,5-dimethylisoxazol-4-yl)-1-(1-(pyridin-2-yl)ethyl)-1H-pyrrolo[2,3-b]pyridin-3-yl)isonicotinic acid]	0.0001 to 1 µM
Cc1noc(C)c1-c1cnc2c(c1)c(-c1ccc(F)c(C(=O)O)c1F)cn2[C@@H](C)c1ccccn1 [P-0125, (S)-3-(5-(3,5-dimethylisoxazol-4-yl)-1-(1-(pyridin-2-yl)ethyl)-1H-pyrrolo[2,3-b]pyridin-3-yl)-2,6-difluorobenzoic acid]	0.0001 to 1 µM
Cc1noc(C)c1-c1cnc2c(c1)c(-c1ccnc(C(=O)O)n1)cn2C(C)c1ccccn1 (centres unmarked) [P-0126, 4-(5-(3,5-dimethylisoxazol-4-yl)-1-(1-(pyridin-2-yl)ethyl)-1H-pyrrolo[2,3-b]pyridin-3-yl)pyrimidine-2-carboxylic acid]	0.0001 to 1 µM
CCCOc1cc(C(=O)O)cc(OCCC)c1-n1cc(CC2CCC2)c2ncc(-c3c(C)noc3C)cc21 [P-0127, 4-(3-(cyclobutylmethyl)-6-(3,5-dimethylisoxazol-4-yl)-1H-pyrrolo[3,2-b]pyridin-1-yl)-3,5-dipropoxybenzoic acid]	0.0001 to 1 µM
Cc1noc(C)c1-c1cnc2c(Cc3cccc(Cl)c3)cn(-c3c(Cl)cc(C(=O)O)cc3Cl)c2c1 [P-0128, 3,5-dichloro-4-(3-(3-chlorobenzyl)-6-(3,5-dimethylisoxazol-4-yl)-1H-pyrrolo[3,2-b]pyridin-1-yl)benzoic acid]	0.0001 to 1 µM
Cc1noc(C)c1-c1cnc2c(C(=O)c3cccc(OC(F)F)c3)cn(-c3c(Cl)cc(C(=O)O)cc3Cl)c2c1 [P-0129, 3,5-dichloro-4-(3-(3-(difluoromethoxy)benzoyl)-6-(3,5-dimethylisoxazol-4-yl)-1H-pyrrolo[3,2-b]pyridin-1-yl)benzoic acid]	0.0001 to 1 µM
Cc1noc(C)c1-c1cnc2c(CC3CCC3)cn(-c3ccc([N+](=O)[O-])cc3F)c2c1 [P-0130, 4-(3-(cyclobutylmethyl)-1-(2-fluoro-4-nitrophenyl)-1H-pyrrolo[3,2-b]pyridin-6-yl)-3,5-dimethylisoxazole]	8 to 1000 µM
Cc1noc(C)c1-c1cnc2c(Cc3ccccc3Cl)cn(-c3c(Cl)cc(C(=O)O)cc3Cl)c2c1 [P-0131, 3,5-dichloro-4-(3-(2-chlorobenzyl)-6-(3,5-dimethylisoxazol-4-yl)-1H-pyrrolo[3,2-b]pyridin-1-yl)benzoic acid]	0.0001 to 1 µM
Cc1noc(C)c1-c1cnc2c(Cc3cccc(OCc4ccccc4)c3)cn(-c3c(Cl)cc(C(=O)O)cc3Cl)c2c1 [P-0132, 4-(3-(3-(benzyloxy)benzyl)-6-(3,5-dimethylisoxazol-4-yl)-1H-pyrrolo[3,2-b]pyridin-1-yl)-3,5-dichlorobenzoic acid]	0.0001 to 1 µM
Cc1noc(C)c1-c1cnc2c(C(=O)c3cccc(OCc4ccccc4)c3)cn(-c3c(Cl)cc(C(=O)O)cc3Cl)c2c1 [P-0133, 4-(3-(3-(benzyloxy)benzoyl)-6-(3,5-dimethylisoxazol-4-yl)-1H-pyrrolo[3,2-b]pyridin-1-yl)-3,5-dichlorobenzoic acid]	0.0001 to 1 µM
COc1ccc(-n2cc(CC3CCC3)c3ncc(-c4c(C)noc4C)cc32)cn1 [P-0134, 4-(3-(cyclobutylmethyl)-1-(6-methoxypyridin-3-yl)-1H-pyrrolo[3,2-b]pyridin-6-yl)-3,5-dimethylisoxazole]	1 to 8 µM
COc1cc(C(=O)O)cc(OCc2ccccc2)c1-c1cn([C@@H](C)c2ccccn2)c2ncc(-c3c(C)noc3C)cc12 [P-0135, (S)-3-(benzyloxy)-4-(5-(3,5-dimethylisoxazol-4-yl)-1-(1-(pyridin-2-yl)ethyl)-1H-pyrrolo[2,3-b]pyridin-3-yl)-5-methoxybenzoic acid]	0.0001 to 1 µM
COc1c(C(=O)O)cccc1-c1cn(C(C)c2ccccc2)c2cc(-c3c(C)noc3C)cnc12 (centres unmarked) [P-0136, 3-(6-(3,5-dimethylisoxazol-4-yl)-1-(1-phenylethyl)-1H-pyrrolo[3,2-b]pyridin-3-yl)-2-methoxybenzoic acid]	0.0001 to 1 µM
